The values that follow come from US20240299416A1, “TREATMENT OF NF-kB-MEDIATED DISEASE” (ReveraGen BioPharma, Inc., priority 2021, published 2024).

The target in data set [1] is T1, glucocorticoid receptor (Homo sapiens, UniProt P04150).
T1 sequence (P04150 1-777): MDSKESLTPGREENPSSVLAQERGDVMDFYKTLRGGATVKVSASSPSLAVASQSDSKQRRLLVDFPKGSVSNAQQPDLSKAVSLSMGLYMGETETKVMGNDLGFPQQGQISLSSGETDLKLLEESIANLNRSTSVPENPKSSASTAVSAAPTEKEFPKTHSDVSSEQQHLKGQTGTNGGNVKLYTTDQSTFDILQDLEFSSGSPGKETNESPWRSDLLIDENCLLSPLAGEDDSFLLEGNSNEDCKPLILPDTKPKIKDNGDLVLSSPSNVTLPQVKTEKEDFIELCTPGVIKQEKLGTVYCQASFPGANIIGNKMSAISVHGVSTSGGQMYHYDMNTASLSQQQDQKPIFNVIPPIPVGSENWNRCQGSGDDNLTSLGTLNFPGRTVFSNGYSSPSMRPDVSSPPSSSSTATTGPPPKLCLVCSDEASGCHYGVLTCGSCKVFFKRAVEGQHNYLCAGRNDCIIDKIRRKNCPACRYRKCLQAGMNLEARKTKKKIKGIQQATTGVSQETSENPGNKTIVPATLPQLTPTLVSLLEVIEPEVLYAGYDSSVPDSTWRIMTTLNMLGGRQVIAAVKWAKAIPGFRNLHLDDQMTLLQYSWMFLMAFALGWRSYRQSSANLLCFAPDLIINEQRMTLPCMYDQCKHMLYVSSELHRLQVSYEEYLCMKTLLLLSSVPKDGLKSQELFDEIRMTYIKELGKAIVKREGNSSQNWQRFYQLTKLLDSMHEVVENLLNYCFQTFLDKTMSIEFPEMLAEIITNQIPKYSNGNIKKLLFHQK
Particulars: cited from earlier work.

Data set [2] in a line: VBP15-002 Phase IIa multiple ascending dose PK and safety. Type of data set: in vivo, human. Here is the method: Vamorolone clinical studies have been conducted in adult male volunteers and boys with DMD, a disorder in which skeletal muscle is in a chronic inflammatory state. Two consecutive open-label dose-ranging studies in 48 DMD patients aged 4 to <7 years (corticosteroid-naïve) were conducted (Phase IIa, VBP15-002; Phase IIa, VBP15-003). Doses were tested over a 24-fold dose range (0.25, 0.75, 2.0, and 6.0 mg/kg/day), with 12 participants per group. The first multiple ascending dose (MAD) cohort trial-tested pharmacokinetics (PK) and safety for 2 weeks of drug dosing followed by a 2-week washout (VBP15-002). […] All DMD participants completed the MAD study and then continued on the same dose for a 24-week dose-finding (efficacy and safety) extension study (VBP15-003).
Three consecutive clinical trials of vamorolone treatment of DMD were conducted by CINRG (VBP15-002 [NCT02760264]; VBP15-003 [NCT02760277]; VBP15-LTE [NCT03038399]). A total of 48 participants (ages 4 to <7 years) were initially enrolled into VBP15-002, with trial participants completing month 12 of the 24-month VBP15-LTE study.
VBP15-002 (Phase IIa; two weeks on the drug, two weeks off drug) enrolled 48 corticosteroid-naïve participants with DMD, and all 48 participants completed the study and enrolled into VBP15-003 (Phase IIa extension; 24-week treatment). […]

For `C[C@@H]1C[C@H]2[C@@H]3CCC4=CC(=O)C=C[C@]4(C)C3=CC[C@]2(C)[C@@]1(O)C(=O)CO` [Vamorolone, 17α,21-dihydroxy-16α-methylpregna-1,4,9(11)-triene-3,20-dione], the “binding to the glucocorticoid receptor” value in data set [1] is “potently binds”. The dose-limiting toxicities result in data set [2] (2 weeks dosing, 0.25-6.0 mg/kg/day) is on record as “no dose-limiting toxicities”. Also, the drug accumulation result in data set [2] (day 1 vs day 14) is “no drug accumulation”.
